Reference: patent US20120196853A1, “Novel Quinoline-Hepcidine Antagonists” (VIFOR (INTERNATIONAL) AG, priority 2009, published 2012)

Biological target: T1, human ferroportin (Fpn-HaloTag fusion protein) (Homo sapiens, UniProt Q9NP59)
T1 construct: expressed in transfected cells
T1 sequence (Q9NP59 1-571): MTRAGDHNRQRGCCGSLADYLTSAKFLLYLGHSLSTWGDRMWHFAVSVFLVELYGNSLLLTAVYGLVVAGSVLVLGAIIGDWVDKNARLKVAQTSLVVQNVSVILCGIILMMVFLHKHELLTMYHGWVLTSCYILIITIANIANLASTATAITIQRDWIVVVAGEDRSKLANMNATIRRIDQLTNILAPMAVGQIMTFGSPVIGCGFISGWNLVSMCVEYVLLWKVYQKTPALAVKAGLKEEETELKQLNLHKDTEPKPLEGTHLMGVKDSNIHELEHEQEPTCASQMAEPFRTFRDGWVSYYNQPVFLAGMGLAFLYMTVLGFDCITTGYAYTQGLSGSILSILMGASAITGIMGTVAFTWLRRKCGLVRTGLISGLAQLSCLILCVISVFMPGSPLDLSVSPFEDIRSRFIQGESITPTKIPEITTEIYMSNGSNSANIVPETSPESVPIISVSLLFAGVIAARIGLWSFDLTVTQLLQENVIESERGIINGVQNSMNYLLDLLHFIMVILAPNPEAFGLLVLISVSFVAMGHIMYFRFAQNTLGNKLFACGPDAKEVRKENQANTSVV
Assay: ferroportin internalization assay (inhibition of hepcidin-induced internalization of Fpn, MDCK-FPN-HaloTag cells)
Type: cell-based
Conditions: for IC50: 100 nM hepcidin, overnight, dilution series 0.04 to 40 μM
Procedure: The hepcidin-antagonistic action of the quinoline compounds of the present invention was determined by means of the “ferroportin internalization assay” described in the following.
Organic compounds of low molecular weight which counteract the biological actions of hepcidin on its receptor, the iron exporter ferroportin (Fpn), were identified on the basis of their ability to inhibit hepcidin-induced internalization of Fpn in living cells. For this purpose, a stable cell line (Madin-Darby canine kidney, MDCK) was produced which constitutively expresses human ferroportin fused recombinantly at its C terminus with a fluorescent reporter protein (HaloTag®, Promega Corp.). The internalization of Fpn was monitored by labelling these cells with fluorescent ligands (HaloTag®-TMR, tetramethylrhodamine) which join covalently on to the HaloTag reporter gene fused with the Fpn. […] Optimized image analysis algorithms were used to ascertain the cell surface and to quantify the corresponding membrane fluorescence associated with the Fpn-HaloTag fusion protein. This assay allows a quantitative image-based analysis in order to quickly evaluate compounds which can block hepcidin-induced internalization of Fpn. This assay is a direct in vitro pendant of the in vivo action mechanism proposed for medicament candidates and is therefore suitable as an initial assay with a high throughput for identifying compounds which counteract the action of hepcidin on its receptor ferroportin.
• 7,500 cells per well (MDCK-FPN-HaloTag) were transinoculated in 50 μl DMEM medium (Dulbeccos modified Eagle medium with 10% foetal bovine serum (FBS), which contained 1% penicillin, 1% streptomycin and 450 μg/ml of G-418) in microtitre plates with 384 wells, (384 Cell carrier plates, Perkin Elmer, cat. no. 6007430), followed by incubation overnight at 37° C./5% CO2. • The volume of the medium was reduced to 10 μl, and 10 μl of 5 μM HaloTag-TMR ligands (Promega, cat. no. G 8251) were added in DMEM medium in order to stain the Fpn-HaloTag fusion protein. • 15 min incubation at 37° C./5% CO2 • The HaloTag-TMR ligand was removed and the cells were washed with fresh DMEM medium and the volume was reduced to 20 μl of DMEM medium. • 3 μl per well of a solution of the test compound (dissolved DMSO) were added ([…]). • 7 μl of […] hepcidin (Peptides International, cat. no. PLP-4392-s, 100 μM stock solution diluted in water in DMEM medium) were added per well up to a final hepcidin concentration of 100 nM. • The cells were incubated overnight at 37° C./5% CO2. • The cells were fixed by adding paraformaldehyde (PFA, Electron Microscopy Sciences, cat. no. 15710-S) directly to the cells up to a final concentration of 4%, followed by incubation at room temperature for 15-20 minutes. • The PFA solution was removed and the cells were washed with PBS (phosphate-buffered saline solution), in each case 30 μl remaining in the plate. • 20 μl of Draq5 (Biostatus, cat. no. DR 51000) were added up to a final concentration of 2.5 μM in order to stain the cell nuclei, and the plates were sealed with a foil plate seal. • The plates were analysed with the Opera Plate Imager (Opera Confocal Plate Imager, Perkin Elmer) with 7 images per well; 440 ms exposure time per image, […] focal point height.

Structure (SMILES)	IC50	I [%] (median inhibition [%] at 10 μM substance conc.) (10 μM substance conc., hepcidin-induced Fpn internalization)
Oc1c(C(c2ccccn2)N2CCC(c3ccccc3F)CC2)ccc2cccnc12 (centres unmarked) [Example 36, 7-{[4-(2-Fluoro-phenyl)-piperidin-1-yl]-pyridin-2-yl-methyl}-quinolin-8-ol]	< 50 µM	–
Oc1c(C(c2ccccn2)N2CCOCC2)cc(Cl)c2cccnc12 (centres unmarked) [Example 25, 5-Chloro-7-(morpholin-4-yl-pyridin-2-yl-methyl)-quinolin-8-ol]	< 50 µM	–
Cc1ccc(C(c2ccc3cccnc3c2O)N2CCOCC2)cc1 (centres unmarked) [Example 9, 7-(Morpholin-4-yl-p-tolyl-methyl)-quinolin-8-ol]	< 50 µM	–
O=C(Oc1c(CN2CCOCC2)cc(Cl)c2cccnc12)c1ccco1 [Example 3, Furan-2-carboxylic acid 5-chloro-7-morpholin-4-ylmethyl-quinolin-8-yl ester]	< 50 µM	<50%
